{
  "source": "patent US20150366523A1",
  "about": "“NEURONAL IMAGING AND TREATMENT” (priority 2013, published 2015)",
  "key": {"[1]": {"system": "adrenergic synapses of the sympathetic nervous system", "experiment": "SPECT imaging of I-123-radiolabeled mIBG distribution in the heart, combined with x-ray CT", "format": "in vivo", "settings": "human patient, I-123-mIBG, D-SPECT plus CT", "procedure": "A human patient was administered I-123-radiolabeled mIBG, a radioactive tracer for adrenergic synapses of the sympathetic nervous system. An image based on mIBG distribution was obtained by SPECT using a D-SPECT® Cardiac Imaging System (Spectrum Dynamics, Israel). The anatomy of the heart was determined by performing x-ray CT imaging and segmenting the obtained x-ray CT images. The x-ray CT data was then combined with the SPECT data so as to construct an image showing mIBG distribution in the heart."}, "[2]": {"system": "prostate stromal cells", "settings": "in vitro; cited from earlier work"}},
  "data": [
    {"compound": "N=C(N)NCc1cccc(I)c1", "note": "[mIBG, m-iodobenzylguanidine]", "values": [
      {"measurement": "mIBG activity in left atrium (site of maximal activity level)", "setting": "[1]; left atrium, FIGS. 6A-6D", "value": "maximal activity level in the left inferior pulmonary vein"},
      {"measurement": "mIBG activity in right ventricle (site of maximal activity level)", "setting": "[1]; right ventricle, FIGS. 8A-8B", "value": "maximal activity level in the interventricular septum"}
    ]},
    {"compound": "NC[C@H](O)c1ccc(O)c(O)c1", "note": "[Norepinephrine, norepinephrine]", "values": [
      {"measurement": "mitogenic effect on prostate stromal cells", "setting": "[2]", "value": "direct mitogenic effect"}
    ]}
  ]
}
